pIC50: −log10 of the molar value.
Experiments:
[1] = target: Receptor-type tyrosine-protein kinase FLT3 (Homo sapiens, UniProt P36888, ITD); experiment: biochemical; format: cell-based, Sf9
Description: Inhibition of N-terminal GST/His6-fused recombinant human FLT3 (R571 to S993 residues) ITD mutant expressed in Sf9 insect cells using poly (Ala,Glu,Lys,Tyr) 6:2:5:1 hydrobromide as substrate in presence of [gamma-33P]ATP

MV4-11 = experiment: Growth inhibition of human MV4-11 cells after 72 hrs by calcein AM dye-based fluorescence assay; format: functional; conditions: MV4-11, 72 h
K562 = experiment: cells; conditions: Homo sapiens, K562, 72 h
[2] = target: Receptor-type tyrosine-protein kinase FLT3 (Homo sapiens, UniProt P36888, D835Y); experiment: biochemical; format: cell-based, Sf9
Description: Inhibition of N-terminal GST/His6-fused recombinant human FLT3 (R571 to S993 residues) D835Y mutant expressed in Sf9 insect cells using poly (Ala,Glu,Lys,Tyr) 6:2:5:1 hydrobromide as substrate in presence of [gamma-33P]ATP

MOLM-13 = experiment: cells; conditions: Homo sapiens, MOLM-13, 72 h
Kasumi 1 = experiment: cells; conditions: Homo sapiens, Kasumi 1, 72 h
THP-1 = experiment: cells; conditions: Homo sapiens, THP-1, 72 h
U-937 = experiment: cells; conditions: Homo sapiens, U-937, 72 h
MCF7 = experiment: cells; conditions: Homo sapiens, MCF7, 72 h
HCC827 = experiment: cells; conditions: Homo sapiens, HCC827, 72 h
in vitro [3] = conditions: human, MRC5 cells
in vitro [4] = conditions: human, HUVEC
in vitro [5] = conditions: human, BJ cells

| SMILES | pIC50 [1] | GI50 (MV4-11) [nM] | GI50 (K562) [nM] | pIC50 [2] | GI50 (MOLM-13) [nM] | GI50 (Kasumi 1) [nM] | GI50 (THP-1) [nM] | GI50 (U-937) [nM] | GI50 (MCF7) [nM] | GI50 (HCC827) [nM] | GI50 at 72 h (in vitro [3]) [nM] | GI50 at 72 h (in vitro [4]) [nM] | GI50 at 72 h (in vitro [5]) [nM] |
| --- | --- | --- | --- | --- | --- | --- | --- | --- | --- | --- | --- | --- | --- |
| OCCNc1nc(Nc2ccc(CN3CCOCC3)cc2)c2ncn(C3CCCC3)c2n1 | 7.54 | 110 | 2000 |  |  |  |  |  |  |  |  |  |  |
| CN1CCN(c2nc(Nc3ccc(CN4CCOCC4)cc3)c3ncn(C4CCCC4)c3n2)CC1 | 7.28 | 66 | 2740 |  |  |  |  |  |  |  |  |  |  |
| N[C@H]1CC[C@H](Nc2nc(Nc3ccc(Br)cc3)c3ncn(C4CCCCO4)c3n2)CC1 (some centres not stated) | 7.15 | 181 | 5170 |  |  |  |  |  |  |  |  |  |  |
| NCCCCNc1nc(Nc2ccc(CN3CCOCC3)cc2)c2ncn(C3CCCC3)c2n1 | 9.00 | 11 | 2100 | 8.30 | 19 | 2240 | 3740 | 1340 | 2100 | 1660 | 3880 | 6260 | 10400 |
| CC(O)CNc1nc(Nc2ccc(Br)cc2)c2ncn(C(C)C)c2n1 (configuration not stated) | 6.23 | 1500 | 17800 |  |  |  |  |  |  |  |  |  |  |
| N[C@H]1CC[C@H](Nc2nc(Nc3ccc(N4CCOCC4)nc3)c3ncn(C4CCCC4)c3n2)CC1 | 8.40 | 4 | 1300 |  |  |  |  |  |  |  |  |  |  |
| CCN1CCN(c2ccc(Nc3nc(NCCCCN)nc4c3ncn4C3CCCC3)cc2)CC1 | 9.00 | 12 | 1340 | 8.52 | 4 | 2070 | 4360 | 3420 | 2150 | 976 | 10300 | 11400 | 15400 |
| N[C@H]1CC[C@H](Nc2nc(Nc3ccc(Cl)cc3)c3ncn(C4CCCC4)c3n2)CC1 | 8.30 | 21 | 840 |  |  |  |  |  |  |  |  |  |  |
| C[C@@H](CO)CNc1nc(Nc2ccc(Br)cc2)c2ncn(C3CCCC3)c2n1 | 6.55 | 1310 | 7630 |  |  |  |  |  |  |  |  |  |  |
| COc1ccc(CNc2nc(Nc3ccc(CN4CCOCC4)cc3)c3ncn(C4CCCC4)c3n2)cc1 | 6.68 | 892 | 6690 |  |  |  |  |  |  |  |  |  |  |
| c1cc(N2CCOCC2)ncc1Nc1nc(N2CCOCC2)nc2c1ncn2C1CCCC1 | 7.15 | 70 | > 25000 |  |  |  |  |  |  |  |  |  |  |
| NCCCCCNc1nc(Nc2ccc(CN3CCOCC3)cc2)c2ncn(C3CCCC3)c2n1 | 8.30 | 35 | 1530 | 7.19 | 20 | 1280 | 2420 | 3630 | 2120 | 1120 | 5880 | 14200 | 11200 |
| NCCCCNc1nc(Nc2ccc(N3CCOCC3)cc2)c2ncn(C3CCCC3)c2n1 | 8.40 | 11 | 3490 | 8.15 | 17 | 2020 | 6910 | 4070 | 3260 | 1410 | 7560 | 8060 | 13000 |
| CC(O)CNc1nc(Nc2ccc(Cl)cc2)c2ncn(C3CCCC3)c2n1 (configuration not stated) | 5.76 | 235 | 10900 |  |  |  |  |  |  |  |  |  |  |
| CC(O)CNc1nc(Nc2ccc(Br)cc2)c2ncn(C3CCCCO3)c2n1 (configuration not stated) | 5.94 | 2430 | 27900 |  |  |  |  |  |  |  |  |  |  |
| CC(O)CNc1nc(Nc2ccc(Br)cc2)c2ncn(Cc3ccccc3)c2n1 (configuration not stated) | 5.01 | > 4000 | 9450 |  |  |  |  |  |  |  |  |  |  |
| CN1CCN(c2nc(Nc3ccc(Br)cc3)c3ncn(Cc4ccccc4)c3n2)CC1 | < 4.70 | > 4000 | 3800 |  |  |  |  |  |  |  |  |  |  |
| c1cc(Nc2nc(N3CCCCC3)nc3c2ncn3C2CCCC2)ccc1CN1CCOCC1 | 7.30 | 701 | 11000 |  |  |  |  |  |  |  |  |  |  |
| Brc1ccc(Nc2nc(N3CCOCC3)nc3c2ncn3C2CCCCO2)cc1 (configuration not stated) | 5.92 | 3880 | 3740 |  |  |  |  |  |  |  |  |  |  |
| OCCCNc1nc(Nc2ccc(CN3CCOCC3)cc2)c2ncn(C3CCCC3)c2n1 | 7.33 | 157 | 2350 |  |  |  |  |  |  |  |  |  |  |
| CC(O)CNc1nc(Nc2ccc(Br)cc2)c2ncn(C3CCCC3)c2n1 (configuration not stated) | 6.20 | 444 | > 25000 |  |  |  |  |  |  |  |  |  |  |
| CC(C)n1cnc2c(Nc3ccc(Br)cc3)nc(N[C@H]3CC[C@H](N)CC3)nc21 | 8.00 | 7 | 1170 |  |  |  |  |  |  |  |  |  |  |
| OCCCCNc1nc(Nc2ccc(CN3CCOCC3)cc2)c2ncn(C3CCCC3)c2n1 | 7.74 | 83 | 1450 |  |  |  |  |  |  |  |  |  |  |
| CN1CCN(c2nc(Nc3ccc(Br)cc3)c3ncn(C4CCCCO4)c3n2)CC1 (configuration not stated) | 5.38 | 3200 | 7130 |  |  |  |  |  |  |  |  |  |  |
| N[C@H]1CC[C@H](Nc2nc(Nc3ccc(N4CCN(Cc5ccccc5)CC4)cc3)c3ncn(C4CCCC4)c3n2)CC1 | 8.22 | 17 | 700 |  |  |  |  |  |  |  |  |  |  |
| N[C@H]1CC[C@H](Nc2nc(Nc3ccc(Br)cc3)c3ncn(Cc4ccccc4)c3n2)CC1 | 6.10 | 2290 | 3070 |  |  |  |  |  |  |  |  |  |  |
| NCCCCCCNc1nc(Nc2ccc(CN3CCOCC3)cc2)c2ncn(C3CCCC3)c2n1 | 8.00 | 86 | 3790 | 7.16 | 54 | 1020 | 3590 | 2920 | 5000 | 2250 | 4090 | 10300 | 7260 |
| c1cc(Nc2nc(N3CCOCC3)nc3c2ncn3C2CCCC2)ccc1CN1CCOCC1 | 7.72 | 61 | 4470 |  |  |  |  |  |  |  |  |  |  |
| Brc1ccc(Nc2nc(N3CCOCC3)nc3c2ncn3Cc2ccccc2)cc1 | < 4.70 | > 4000 | > 12500 |  |  |  |  |  |  |  |  |  |  |

— ChEMBL document CHEMBL4177767, “Discovery of N2-(4-Amino-cyclohexyl)-9-cyclopentyl- N6-(4-morpholin-4-ylmethyl-phenyl)- 9H-purine-2,6-diamine as a Potent FLT3 Kinase Inhibitor for Acute Myeloid Leukemia with FLT3 Mutations” (J Med Chem, 2018)
